Holding throughout (format): functional
Common to all, as to conditions: 96 h, time 4 day, read-out: GI

The test system of assay [1] is VCaP. Description: Cytotoxicity against human VCaP cells assessed as growth inhibition at 1 uM after 4 days by CCK8 assay relative to control. (In general: Tetrazolium dyes change colour on reduction, which living cells bring about.)
Assay [2] relates to VCaP. In words: Cytotoxicity against human VCaP cells assessed as growth inhibition at 0.25 uM after 4 days by CCK8 assay relative to control.
In assay [3] the test system is VCaP. Description: Cytotoxicity against human VCaP cells assessed as growth inhibition at 0.5 uM after 4 days by CCK8 assay relative to control.
The test system of assay [4] is VCaP. Description: Cytotoxicity against human VCaP cells assessed as growth inhibition at 0.125 uM after 4 days by CCK8 assay relative to control.

For the compound `Cc1ncsc1-c1ccc([C@H](CC(=O)NCCCCCCCCN2CCN(c3ccc(C(=O)N4[C@@H]5CC[C@H]4C[C@@H](Oc4ccc(C#N)c(Cl)c4)C5)cc3)CC2)NC(=O)[C@H]2C[C@H](O)CN2C(=O)[C@H](NC(=O)C2(F)CC2)C(C)(C)C)cc1`, in the assay with VCaP [1], the inhibition of growth at 1 µM was determined as 44.7%. Also, the inhibition of growth at 0.25 µM in the assay on VCaP [2] is 11.3%. In addition, the inhibition of growth at 0.5 µM with VCaP [3] is 24.1%.
As for `N#Cc1ccc(O[C@H]2C[C@H]3CC[C@@H](C2)N3C(=O)c2cnc(N3CCN(CCCNc4ccc5c(c4)C(=O)N(C4CCC(=O)NC4=O)C5=O)CC3)nc2)cc1Cl` (some centres not stated), the inhibition of growth at 1 µM in the assay on VCaP [1] came to 42.4%. Also, the inhibition of growth at 0.25 µM in the assay on VCaP [2] was determined as 25.6%. In addition, the inhibition of growth at 0.5 µM with VCaP [3] is 30.1%. Further, the inhibition of growth at 0.125 µM in the assay on VCaP [4] came out at 17.1%.
Turning to `Cc1ncsc1-c1ccc([C@H](C)NC(=O)[C@@H]2C[C@@H](O)CN2C(=O)[C@@H](NC(=O)COCCN2CCN(c3cnc(C(=O)N4[C@@H]5CC[C@H]4C[C@@H](Oc4ccc(C#N)c(Cl)c4)C5)cn3)CC2)C(C)(C)C)cc1`, in the assay with VCaP [1], the inhibition of growth at 1 µM worked out at 72.3%. In the assay with VCaP [2], the inhibition of growth at 0.25 µM came out at 52%. In addition, the inhibition of growth at 0.5 µM in the assay with VCaP [3] came to 61.5%. For the same compound, the inhibition of growth at 0.125 µM in the assay with VCaP [4] stood at 42.4%.
Taken in the same sequence, the figures for `N#Cc1ccc(O[C@H]2C[C@H]3CC[C@@H](C2)N3C(=O)c2cnc(N3CCN(CCCCCCCNc4ccc5c(c4)C(=O)N(C4CCC(=O)NC4=O)C5=O)CC3)nc2)cc1Cl` (some centres not stated) were 30.4%, 30.7%, 35.2% and 28.1%.
For `N#Cc1ccc(O[C@H]2C[C@H]3CC[C@@H](C2)N3C(=O)c2cnc(N3CCN(CCCCCNc4ccc5c(c4)C(=O)N(C4CCC(=O)NC4=O)C5=O)CC3)nc2)cc1Cl` (some centres not stated) the same measures were 34.9%, 31.4%, 34.2% and 20.4%.
For `Cc1ncsc1-c1ccc([C@H](C)NC(=O)[C@@H]2C[C@@H](O)CN2C(=O)[C@@H](NC(=O)COCCN2CCN(c3ccc(C(=O)N4[C@@H]5CC[C@H]4C[C@@H](Oc4ccc(C#N)c(Cl)c4)C5)cn3)CC2)C(C)(C)C)cc1` the same measures were 72.5%, 7.23%, 63.6% and 28.4%.
Regarding `CN1CCC(N2CCC(C#Cc3ccc(C(=O)N4[C@@H]5CC[C@H]4C[C@@H](Oc4ccc(C#N)c(Cl)c4)C5)cc3)CC2)CC1`, the inhibition of growth at 1 µM in the assay with VCaP [1] stood at 34%. The inhibition of growth at 0.25 µM with VCaP [2] amounted to 23.3%. Moreover, in the assay on VCaP [3], the inhibition of growth at 0.5 µM came to 30.1%. For the same compound, in the assay with VCaP [4], the inhibition of growth at 0.125 µM was found to be 14.9%.
Consider `Cc1ncsc1-c1ccc([C@H](C)NC(=O)[C@@H]2C[C@@H](O)CN2C(=O)[C@@H](NC(=O)COCCN2CCN(c3ccc(C(=O)N4[C@@H]5CC[C@H]4C[C@@H](Oc4ccc(C#N)c(Cl)c4)C5)nn3)CC2)C(C)(C)C)cc1`, for which the inhibition of growth at 1 µM in the assay on VCaP [1] worked out at 28.1%. Further, the inhibition of growth at 0.25 µM with VCaP [2] is 6.65%. Moreover, the inhibition of growth at 0.5 µM with VCaP [3] was 12.5%.
Regarding `N#Cc1ccc(O[C@H]2C[C@H]3CC[C@@H](C2)N3C(=O)c2cnc(N3CCN(CCCCCCNc4ccc5c(c4)C(=O)N(C4CCC(=O)NC4=O)C5=O)CC3)nc2)cc1Cl` (some centres not stated), the inhibition of growth at 1 µM in the assay with VCaP [1] came to 38.9%. Besides, the inhibition of growth at 0.25 µM in the assay with VCaP [2] worked out at 36.3%. Besides, in the assay with VCaP [3], the inhibition of growth at 0.5 µM was found to be 37.8%. Moreover, the inhibition of growth at 0.125 µM in the assay with VCaP [4] is 31.7%.
For `Cc1ncsc1-c1ccc([C@H](CC(=O)NCCCCCCCCCN2CCN(c3ccc(C(=O)N4[C@@H]5CC[C@H]4C[C@@H](Oc4ccc(C#N)c(Cl)c4)C5)cc3)CC2)NC(=O)[C@H]2C[C@H](O)CN2C(=O)[C@H](NC(=O)C2(F)CC2)C(C)(C)C)cc1` the same measures were 55.2%, 15.9%, 29% and 5.34%.
`C[C@@]12C[C@H](NC(=O)c3ccc(N4CCN(CCCCCNc5ccc6c(c5)C(=O)N(C5CCC(=O)NC5=O)C6=O)CC4)cc3)C[C@]1(C)C[C@@H](Oc1ccc(C#N)c(Cl)c1)C2` (some centres not stated): the inhibition of growth at 1 µM with VCaP [1] was found to be 44.5%. Moreover, the inhibition of growth at 0.25 µM in the assay with VCaP [2] was 30.3%. The inhibition of growth at 0.5 µM with VCaP [3] worked out at 38.1%. In the assay on VCaP [4], the inhibition of growth at 0.125 µM is 24.1%.
As to `C[C@@]12C[C@H](NC(=O)c3ccc(N4CCN(CCCCCCCCNc5ccc6c(c5)C(=O)N(C5CCC(=O)NC5=O)C6=O)CC4)cc3)C[C@]1(C)C[C@@H](Oc1ccc(C#N)c(Cl)c1)C2` (some centres not stated), the inhibition of growth at 1 µM in the assay with VCaP [1] worked out at 26%. The inhibition of growth at 0.25 µM with VCaP [2] worked out at 19.5%. In addition, the inhibition of growth at 0.5 µM in the assay on VCaP [3] came to 24.6%. Moreover, the inhibition of growth at 0.125 µM with VCaP [4] was determined as 6.05%.
For `Cc1ncsc1-c1ccc(CNC(=O)[C@@H]2C[C@@H](O)CN2C(=O)[C@@H](NC(=O)COCCN2CCN(c3ccc(C(=O)N4[C@@H]5CC[C@H]4C[C@@H](Oc4ccc(C#N)c(Cl)c4)C5)cc3)CC2)C(C)(C)C)cc1` the same measures were 64.6%, 31.1%, 56.6% and 18.5%.
Turning to `Cc1ncsc1-c1ccc([C@H](C)NC(=O)[C@@H]2C[C@@H](O)CN2C(=O)[C@@H](NC(=O)COCCN2CCN(c3ccc(C(=O)N4[C@@H]5CC[C@H]4C[C@@H](Oc4ccc(C#N)c(Cl)c4)C5)cc3)CC2)C(C)(C)C)cc1`, in the assay with VCaP [1], the inhibition of growth at 1 µM was found to be 76.2%. In addition, the inhibition of growth at 0.25 µM in the assay on VCaP [2] was determined as 61.8%. Also, the inhibition of growth at 0.5 µM with VCaP [3] is 70.6%. Further, the inhibition of growth at 0.125 µM with VCaP [4] came out at 45%.
With `C[C@@]12C[C@H](NC(=O)c3ccc(N4CCN(CCCCCCCNc5ccc6c(c5)C(=O)N(C5CCC(=O)NC5=O)C6=O)CC4)cc3)C[C@]1(C)C[C@@H](Oc1ccc(C#N)c(Cl)c1)C2` (some centres not stated), the inhibition of growth at 1 µM with VCaP [1] is 14.8%. The inhibition of growth at 0.25 µM in the assay on VCaP [2] came out at 14%. Further, the inhibition of growth at 0.5 µM in the assay with VCaP [3] was found to be 14.3%. In the assay on VCaP [4], the inhibition of growth at 0.125 µM was determined as 7.46%.
As for `C[C@@]12C[C@H](NC(=O)c3ccc(N4CCN(CCCCCCCCCNc5ccc6c(c5)C(=O)N(C5CCC(=O)NC5=O)C6=O)CC4)cc3)C[C@]1(C)C[C@@H](Oc1ccc(C#N)c(Cl)c1)C2` (some centres not stated), the inhibition of growth at 1 µM in the assay on VCaP [1] is 25%. For the same compound, the inhibition of growth at 0.25 µM in the assay on VCaP [2] is 18%. In the assay with VCaP [3], the inhibition of growth at 0.5 µM worked out at 24.3%.
For `Cc1ncsc1-c1ccc([C@H](CC(=O)NCCCCCCCN2CCN(c3ccc(C(=O)N4[C@@H]5CC[C@H]4C[C@@H](Oc4ccc(C#N)c(Cl)c4)C5)cc3)CC2)NC(=O)[C@H]2C[C@H](O)CN2C(=O)[C@H](NC(=O)C2(F)CC2)C(C)(C)C)cc1` the same measures were 29.8%, 2.18% and 14.5%.
Taken in the same sequence, the figures for `Cc1ncsc1-c1ccc(CNC(=O)[C@@H]2C[C@@H](O)CN2C(=O)[C@@H](NC(=O)CN2CCN(c3ccc(C(=O)N4[C@@H]5CC[C@H]4C[C@@H](Oc4ccc(C#N)c(Cl)c4)C5)cc3)CC2)C(C)(C)C)cc1` were 86.7%, 5.65% and 35.1%.
